This is an account of results in patent US20250368616A1, “NITROGEN-CONTAINING HETEROCYCLIC DERIVATIVE INHIBITOR, AND PREPARATION METHOD THEREFOR AND USE THEREOF” (SHANGHAI HANSOH BIOMEDICAL CO., LTD., priority 2021, published 2025).

Structures are written as SMILES. pIC50: −log10 of the molar value.

The test system of the test is Ba/F3 EGFR Del19/C797S cells. The test is described as follows: Cell proliferation inhibition assay (Cell Titer-Glo), Ba/F3 EGFR Del19/C797S. Type of test: cell-based. The settings on record: 72 hours, read-out: Ba/F3 EGFR Del19_C797S IC50. From the text:
Test Example 2: Cell Proliferation Inhibition Assay
Experimental objective: The objective of this test example is to test the inhibitory activity of compounds on the proliferation of different EGFR C797S drug-resistant mutant cell lines Ba/F3 EGFR Del19/T790M/C797S, Ba/F3 EGFR L858R/T790M/C797S, and Ba/F3 EGFR Del19/C797S.
• Ba/F3 EGFR Del19/T790M/C797S cells were purchased from KYinno Biotechnology Co., Ltd.; • Ba/F3 EGFR Del19/C797S cells were purchased from CoBioer Biosciences Co., Ltd.; • Ba/F3 EGFR L858R/T790M/C797S cells were purchased from CoBioer Biosciences Co., Ltd.; • Cell Titer-Glo was purchased from Promega, with a catalog number of G7573; • RPMI 1640 was purchased from Gibco, with a catalog number of 22400089; • FBS was purchased from Gibco, with a catalog number of 10091148; • cell culture plates were purchased from Corning, with a catalog number of 3610.
The inhibitory activity of the compound on the proliferation of different EGFR C797S drug-resistant mutant cell lines was detected using the Cell Titer-Glo method. The different cell lines were cultured in RPMI 1640 complete culture medium containing 10% FBS under conditions of 37° C. and 5% CO2, the cells were collected by centrifugation when growing to a certain density, and adjusted to appropriate cell density after counting, the cells were spread on a white 96-well plate at 90 μL/well, and cultured in a 37° C., 5% CO2 incubator overnight, prepared compound solutions of different concentrations were added at 10 μL/well, corresponding solvent controls were set, and all wells were cultured in a 37° C., 5% CO2 incubator for 72 hours, 50 μL of CellTiter-Glo solution was added to each well, shook and mixed evenly, and incubated in the dark for 10 minutes, and a BioTek Synergy H1 microplate reader was used for reading.
The luminescence signal value was used to calculate the inhibition rate. Graphpad Prism software was used to fit the concentration and inhibition rate to a nonlinear regression curve, so as to obtain the IC50 value, as shown in Tables 3 and 4 below for details.
Take `[2H]C([2H])([2H])n1cc(-c2nccc(Nc3cc4c(C(C)C)ccc(N5C[C@H](CS(C)(=O)=O)[C@H]5C)c4cn3)n2)c([N+](=O)[O-])n1` [Example 64, 5-isopropyl-8-((2R,3S)-2-methyl-3-((methanesulfonyl)methyl)azetidin-1-yl)-N-(2-(1-(methyl-d3)-3-nitro-1H-pyrazol-4-yl)pyrimidin-4-yl)isoquinolin-3-amine]: the pIC50 was 7.21.

Regarding `CC(C)c1ccc(N2C[C@H](CS(C)(=O)=O)[C@H]2C)c2cnc(Nc3ccnc(-c4cn(CC(O)CF)nc4Cl)n3)cc12` (stereo partly drawn) [Example 82, 1-(3-chloro-4-(4-((5-isopropyl-8-((2R,3S)-2-methyl-3-((methanesulfonyl)methyl)azetidin-1-yl)isoquinolin-3-yl)amino)pyrimidin-2-yl)-1H-pyrazol-1-yl)-3-fluoropropan-2-ol], the pIC50 was 7.48.

Take `CC(C)c1ccc(N2CC(N3C[C@@H](C)OC3=O)C2)c2cnc(Nc3ccnc(-c4cn(C)nc4Cl)n3)cc12` [Example 84, (R)-3-(1-(3-((2-(3-chloro-1-methyl-1H-pyrazol-4-yl)pyrimidin-4-yl)amino)-5-isopropylisoquinolin-8-yl)azetidin-3-yl)-5-methyloxazolidin-2-one]: the pIC50 was 7.03.

Consider `C#CCn1cc(-c2nccc(Nc3cc4c(C(C)C)ccc(N5C[C@H](CS(C)(=O)=O)[C@H]5C)c4cn3)n2)cn1` [Example 53, 5-isopropyl-8-((2R,3S)-2-methyl-3-((methanesulfonyl)methyl)azetidin-1-yl)-N-(2-(1-(prop-2-yn-1-yl)-1H-pyrazol-4-yl)pyrimidin-4-yl)isoquinolin-3-amine], for which the pIC50 is 7.31.

Turning to `CC(C)c1ccc(N2C[C@H](CS(C)(=O)=O)[C@H]2C)c2cnc(Nc3ccnc(-c4cn(CCO)nc4C(F)(F)F)n3)cc12` [Example 59, 2-(4-(4-((5-isopropyl-8-((2R,3S)-2-methyl-3-((methanesulfonyl)methyl)azetidin-1-yl)isoquinolin-3-yl)amino)pyrimidin-2-yl)-3-(trifluoromethyl)-1H-pyrazol-1-yl)ethan-1-ol], the pIC50 was 7.21.

Consider `Cc1nn(C)c(F)c1-c1nccc(Nc2cc3c(C(C)C)ccc(N4C[C@H](CS(C)(=O)=O)[C@H]4C)c3cn2)n1` [Example 77, N-(2-(5-fluoro-1,3-dimethyl-1H-pyrazol-4-yl)pyrimidin-4-yl)-5-isopropyl-8-((2R,3S)-2-methyl-3-((methanesulfonyl)methyl)azetidin-1-yl)isoquinolin-3-amine], for which the pIC50 was 7.92.

With `CC(C)c1ccc(N2CC(N3CCCS3(=O)=O)C2)c2cnc(Nc3ccnc(-c4cn(C)nc4Cl)n3)cc12` [Example 68, 2-(1-(3-((2-(3-chloro-1-methyl-1H-pyrazol-4-yl)pyrimidin-4-yl)amino)-5-isopropylisoquinolin-8-yl)azetidin-3-yl)isothiazolidine 1,1-dioxide], the pIC50 is 7.68.

For `CC(C)c1ccc(N2C[C@H](CS(C)(=O)=O)[C@H]2C)c2cnc(Nc3ccnc(-c4c[nH]nc4Cl)n3)cc12` [Example 10, N-(2-(3-chloro-1H-pyrazol-4-yl)pyrimidin-4-yl)-5-isopropyl-8-((2R,3S)-2-methyl-3-((methanesulfonyl)methyl)azetidin-1-yl)isoquinolin-3-amine], the pIC50 was 7.22.

As to `CC(C)c1ccc(N2C[C@H](CS(C)(=O)=O)[C@H]2C)c2cnc(Nc3ccnc(-c4cnn([C@@H](C)C(F)(F)F)c4)n3)cc12` [Example 22A, 5-isopropyl-8-((2R,3S)-2-methyl-3-((methanesulfonyl)methyl)azetidin-1-yl)-N-(2-(1-((S)-1,1,1-trifluoropropan-2-yl)-1H-pyrazol-4-yl)pyrimidin-4-yl)isoquinolin-3-amine], the pIC50 is 7.02.

`CC(C)c1ccc(N2C[C@H](CS(C)(=O)=O)[C@H]2C)c2cnc(Nc3ccnc(-c4cn(C)nc4F)n3)cc12` [Example 62, N-(2-(3-fluoro-1-methyl-1H-pyrazolyl-4-yl)pyrimidin-4-yl)-5-isopropyl-8-((2R,3S)-2-methyl-3-((methanesulfonyl)methyl)azabut-1-yl)isoquinolin-3-amine]: the pIC50 was 7.40.

For `CC(C)c1ccc(C2CC(CS(C)(=O)=O)C2)c2cnc(Nc3ccnc(-c4cn(C)nc4Cl)n3)cc12` (stereo not shown) [Example 63, N-(2-(3-chloro-1-methyl-1H-pyrazol-4-yl)pyrimidin-4-yl)-5-isopropyl-8-(3-((methanesulfonyl)methyl)cyclobutyl)isoquinolin-3-amine], the pIC50 is 7.52.

With `CC(C)c1ccc(N2C[C@H](CS(C)(=O)=O)[C@H]2C)c2cnc(Nc3ccnc(-c4cn(C)nc4C(F)(F)F)n3)cc12` [Example 56, 5-isopropyl-8-((2R,3S)-2-methyl-3-((methanesulfonyl)methyl)azetidin-1-yl)-N-(2-(1-methyl-3-(trifluoromethyl)-1H-pyrazol-4-yl)pyrimidin-4-yl)isoquinolin-3-amine], the pIC50 is 8.00.

With `CC(C)c1ccc(N2C[C@H](CS(C)(=O)=O)[C@H]2C)c2cnc(Nc3ccnc(-c4cn(CCN)nc4Cl)n3)cc12` [Example 71, N-(2-(1-(2-aminoethyl)-3-chloro-1H-pyrazol-4-yl)pyrimidin-4-yl)-5-isopropyl-8-((2R,3S)-2-methyl-3-((methanesulfonyl)methyl)azetidin-1-yl)isoquinolin-3-amine], the pIC50 was 7.02.

As to `CC(C)c1ccc(N2CC(C[N+](=O)[O-])C2)c2cnc(Nc3ccnc(-c4cn(C)nc4Cl)n3)cc12` [Example 75, N-(2-(3-chloro-1-methyl-1H-pyrazol-4-yl)pyrimidin-4-yl)-5-isopropyl-8-(3-(nitromethyl)azetidin-1-yl)isoquinolin-3-amine], the pIC50 was 7.55.

For the molecule `[2H]C([2H])([2H])n1cc(-c2nccc(Nc3cc4c(C(C)C)ccc(N5C[C@H](CS(C)(=O)=O)[C@H]5C)c4cn3)n2)c(F)n1` [Example 65, N-(2-(3-fluoro-1-(methyl-d3)-1H-pyrazol-4-yl)pyrimidin-4-yl)-5-isopropyl-8-((2R,3S)-2-methyl-3-((methylsulfonyl)methyl)azabut-1-yl)isoquinolin-3-amine], the pIC50 was 7.08.

As for `CC(C)c1ccc(N2C[C@H](CS(C)(=O)=O)[C@H]2C)c2cnc(Nc3ccnc(-c4cn(C)nc4C#N)n3)cc12` [Example 55, 4-(4-((5-isopropyl-8-((2R,3S)-2-methyl-3-((methanesulfonyl)methyl)azetidin-1-yl)isoquinolin-3-yl)amino)pyrimidin-2-yl)-1-methyl-1H-pyrazole-3-carbonitrile], the pIC50 was 7.60.

Regarding `COC1(n2cc(-c3nccc(Nc4cc5c(C(C)C)ccc(N6C[C@H](CS(C)(=O)=O)[C@H]6C)c5cn4)n3)cn2)CC1` [Example 49, 5-isopropyl-N-(2-(1-(1-methoxycyclopropyl)-1H-pyrazol-4-yl)pyrimidin-4-yl)-8-((2R,3S)-2-methyl-3-((methanesulfonyl)methyl)azetidin-1-yl)isoquinolin-3-amine], the pIC50 was 7.39.

Take `CCc1nn(C)cc1-c1nccc(Nc2cc3c(C(C)C)ccc(N4C[C@H](CS(C)(=O)=O)[C@H]4C)c3cn2)n1` [Example 57, N-(2-(3-ethyl-1-methyl-1H-pyrazol-4-yl)pyrimidin-4-yl)-5-isopropyl-8-((2R,3S)-2-methyl-3-((methanesulfonyl)methyl)azetidin-1-yl)isoquinolin-3-amine]: the pIC50 is 7.59.

For the molecule `CC(C)c1ccc(N2C[C@H](CS(C)(=O)=O)[C@H]2C)c2cnc(Nc3ccnc(-c4cn(C5COC5)nc4Cl)n3)cc12` [Example 81, N-(2-(3-chloro-1-(oxetan-3-yl)-1H-pyrazol-4-yl)pyrimidin-4-yl)-5-isopropyl-8-((2R,3S)-2-methyl-3-((methanesulfonyl)methyl)azetidin-1-yl)isoquinolin-3-amine], the pIC50 is 7.30.

For `CC(C)c1ccc(N2CC(C[S+](C)[O-])C2)c2cnc(Nc3ccnc(-c4cn(C)nc4Cl)n3)cc12` (stereo not shown) [Example 76, N-(2-(3-chloro-1-methyl-H-pyrazol-4-yl)pyrimidin-4-yl)-5-isopropyl-8-(3-((methylsulfinyl<sulfenyl>)methyl)azetidin-1-yl)isoquinolin-3-amine], the pIC50 was 7.20.

On to `Cc1nn(CCO)cc1-c1nccc(Nc2cc3c(C(C)C)ccc(N4C[C@H](CS(C)(=O)=O)[C@H]4C)c3cn2)n1` [Example 58, 2-(4-(4-((5-isopropyl-8-((2R,3S)-2-methyl-3-((methanesulfonyl)methyl)azetidin-1-yl)isoquinolin-3-yl)amino)pyrimidin-2-yl)-3-methyl-1H-pyrazol-1-yl)ethan-1-ol], for which the pIC50 was 7.28.

Take `COC(=O)NC1CN(c2ccc(C(C)C)c3cc(Nc4ccnc(-c5cn(C)nc5Cl)n4)ncc23)C1` [Example 72, methyl (1-(3-((2-(3-chloro-1-methyl-1H-pyrazol-4-yl)pyrimidin-4-yl)amino)-5-isopropylisoquinolin-8-yl)azetidin-3-yl)carbamate]: the pIC50 was 7.11.
